# Target: T1, glucocorticoid receptor (Homo sapiens, UniProt P04150)
# T1 construct: endogenous in cells; ATCC cat
# T1 sequence (P04150 1-777): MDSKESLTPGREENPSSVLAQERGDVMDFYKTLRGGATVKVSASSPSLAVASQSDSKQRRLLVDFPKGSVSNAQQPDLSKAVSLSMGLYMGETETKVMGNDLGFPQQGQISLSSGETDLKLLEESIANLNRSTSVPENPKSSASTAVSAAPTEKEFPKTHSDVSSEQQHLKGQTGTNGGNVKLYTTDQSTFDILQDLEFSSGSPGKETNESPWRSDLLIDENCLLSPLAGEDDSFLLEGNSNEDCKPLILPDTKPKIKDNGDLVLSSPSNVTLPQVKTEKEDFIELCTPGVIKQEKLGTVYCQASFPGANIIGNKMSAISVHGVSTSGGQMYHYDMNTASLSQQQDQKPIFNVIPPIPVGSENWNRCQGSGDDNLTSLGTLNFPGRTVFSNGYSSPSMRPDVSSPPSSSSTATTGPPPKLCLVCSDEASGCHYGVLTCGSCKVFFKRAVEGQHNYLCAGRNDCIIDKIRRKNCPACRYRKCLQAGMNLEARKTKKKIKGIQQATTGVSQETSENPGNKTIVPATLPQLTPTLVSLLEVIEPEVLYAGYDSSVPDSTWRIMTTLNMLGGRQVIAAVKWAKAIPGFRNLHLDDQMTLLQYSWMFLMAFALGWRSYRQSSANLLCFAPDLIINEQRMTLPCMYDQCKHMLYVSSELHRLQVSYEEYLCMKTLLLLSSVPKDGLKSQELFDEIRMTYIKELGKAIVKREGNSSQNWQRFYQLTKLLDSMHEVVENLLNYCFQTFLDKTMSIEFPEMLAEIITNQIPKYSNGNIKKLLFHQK
# Experiment: Hep G2 TAT IC50: inhibition of dexamethasone-induced TAT in HepG2 cells (384 well)
# Type: cell-based
# Procedure: Glucocorticoid mediated activation of TAT occurs by transactivation of glucocorticoid response elements in the TAT promoter by glucocorticoid receptor/agonist complex.
# HepG2 cells were cultured using MEME media supplemented with 10% (v/v) foetal bovine serum, 2 mM L-glutamine, 1% (v/v) NEAA, and 1% (v/v) penstrep, at 37° C., 5%/95% (v/v) CO2/air.
# Compounds were diluted from a 10 mM stock via an Echo Acoustic liquid handler into 10 μL assay media to generate a 10-point half-log dilution curve.
# HepG2 cells were then lysed with 8 μL of cell lysis buffer containing a protease inhibitor cocktail for 15 minutes at 25° C. […] After a 2-hour incubation at 37° C. the reaction was terminated by the addition of 8 μL of 5 M aqueous potassium hydroxide solution, and the plates incubated for a further 30 minutes at 37° C.
# [compound] and fitting the data to a 4-parameter logistic equation.
row,IC50 [nM],Structure (SMILES)
1,2880,"COc1ccc(-n2ncc3cc(C4CN(S(=O)(=O)c5cnn(C)n5)CCN4CCC(F)(F)F)c(C)cc32)cc1 (stereo not shown) [Example 205, 1-(4-methoxyphenyl)-6-methyl-5-(4-(2-methyltriazol-4-yl)sulfonyl-1-(3,3,3-trifluoropropyl)piperazin-2-yl)indazole]"
2,1280,"Cc1cc2c(cnn2-c2ccc(=O)n(C)c2)cc1C1CN(S(=O)(=O)N2CCOCC2)CCN1CCC(F)(F)F (stereo not shown) [Example 198, 1-methyl-5-(6-methyl-5-(4-morpholinosulfonyl-1-(3,3,3-trifluoropropyl)piperazin-2-yl)indazol-1-yl)pyridin-2-one]"
3,2750,"Cc1cc2c(cnn2-c2ccc(F)cc2)cc1C1CN(S(=O)(=O)c2cnn(C)n2)CCCN1CCC(F)(F)F (stereo not shown) [Example 173, 1-(4-fluorophenyl)-6-methyl-5-(4-(2-methyltriazol-4-yl)sulfonyl-1-(3,3,3-trifluoropropyl)-1,4-diazepan-2-yl)indazole]"
4,1660,"Cc1ncc(S(=O)(=O)N2CCN(CC3CCCC3)C(c3cc4cnn(-c5ccc(F)cc5)c4cc3C)C2)s1 (single isomer, unassigned) [Example 187, 5-(4-(cyclopentylmethyl)-3-(1-(4-fluorophenyl)-6-methyl-indazol-5-yl)piperazin-1-yl)sulfonyl-2-methyl-thiazole]"
5,3850,"Cc1cnnc(-n2ncc3cc(C4CN(S(=O)(=O)c5cnn(C)n5)CCN4CCC(F)(F)F)c(C)cc32)c1 (stereo not shown) [Example 204, 6-methyl-1-(5-methylpyridazin-3-yl)-5-(4-(2-methyltriazol-4-yl)sulfonyl-1-(3,3,3-trifluoropropyl)piperazin-2-yl)indazole]"
6,443,"Cc1cc2c(cnn2-c2cc(C)c(=O)n(C)c2)cc1C1CN(S(=O)(=O)c2cccnc2)CCN1CCC(F)(F)F (stereo not shown) [Example 194, 1,3-dimethyl-5-(6-methyl-5-(4-(3-pyridylsulfonyl)-1-(3,3,3-trifluoropropyl)piperazin-2-yl)indazol-1-yl)pyridin-2-one]"
7,6120,"COc1ncc(-n2ncc3cc(C4CN(S(=O)(=O)c5cnn(C)n5)CCN4CCC(F)(F)F)c(C)cc32)cc1C (stereo not shown) [Example 206, 1-(6-methoxy-5-methyl-3-pyridyl)-6-methyl-5-(4-(2-methyltriazol-4-yl)sulfonyl-1-(3,3,3-trifluoropropyl)piperazin-2-yl)indazole]"
8,4030,"Cc1ncc(S(=O)(=O)N2CCCN(CCC(F)(F)F)C(c3cc4cnn(-c5ccc(F)cc5)c4cc3C)C2)s1 (stereo not shown) [Example 191, 5-((3-(1-(4-fluorophenyl)-6-methyl-indazol-5-yl)-4-(3,3,3-trifluoropropyl)-1,4-diazepan-1-yl)sulfonyl)-2-methyl-thiazole]"
9,4010,"Cc1cccc(-n2ncc3cc(C4CN(S(=O)(=O)c5cnn(C)n5)CCN4CCC(F)(F)F)c(C)cc32)c1 (stereo not shown) [Example 200, 6-methyl-5-(4-(2-methyltriazol-4-yl)sulfonyl-1-(3,3,3-trifluoropropyl)piperazin-2-yl)-1-(m-tolyl)indazole]"
10,284,"Cc1cc2c(cnn2-c2cc(C)c(=O)n(C)c2)cc1C1CN(S(=O)(=O)N(C)C)CCN1CCC(F)(F)F (stereo not shown) [Example 196, 3-(1-(1,5-dimethyl-6-oxo-3-pyridyl)-6-methyl-indazol-5-yl)-N,N-dimethyl-4-(3,3,3-trifluoropropyl)piperazine-1-sulfonamide]"
11,2400,"Cc1nc(S(=O)(=O)N2CCN(CC3CCCC3)C(c3cc4cnn(-c5ccc(F)cc5)c4cc3C)C2)cs1 (single isomer, unassigned) [Example 186, 4-(4-(cyclopentylmethyl)-3-(1-(4-fluorophenyl)-6-methyl-indazol-5-yl)piperazin-1-yl)sulfonyl-2-methyl-thiazole]"
12,9330,"Cc1cc(-n2ncc3cc(C4CN(S(=O)(=O)c5cnn(C)n5)CCN4CCC(F)(F)F)c(C)cc32)ncn1 (stereo not shown) [Example 203, 6-methyl-1-(6-methylpyrimidin-4-yl)-5-(4-(2-methyltriazol-4-yl)sulfonyl-1-(3,3,3-trifluoropropyl)piperazin-2-yl)indazole]"
13,3850,"Cc1cc2c(cnn2-c2cccc(C(F)F)c2)cc1C1CN(S(=O)(=O)c2cnn(C)n2)CCN1CCC(F)(F)F (stereo not shown) [Example 201, 1-(3-(difluoromethyl)phenyl)-6-methyl-5-(4-(2-methyltriazol-4-yl)sulfonyl-1-(3,3,3-trifluoropropyl)piperazin-2-yl)indazole]"
14,1220,"Cc1nc(S(=O)(=O)N2CCN(CC3CC(C)(C)C3)C(c3cc4cnn(-c5ccc(F)cc5)c4cc3C)C2)cs1 (single isomer, unassigned) [Example 185, 4-(4-((3,3-dimethylcyclobutyl)methyl)-3-(1-(4-fluorophenyl)-6-methyl-indazol-5-yl)piperazin-1-yl)sulfonyl-2-methyl-thiazole]"
15,1320,"COc1cc2c(cnn2-c2ccc(F)cc2)cc1C1CN(S(=O)(=O)c2csc(C)n2)CCN1CCC(F)(F)F (stereo not shown) [Example 188, 4-(3-(1-(4-fluorophenyl)-6-methoxy-indazol-5-yl)-4-(3,3,3-trifluoropropyl)piperazin-1-yl)sulfonyl-2-methyl-thiazole]"
16,1440,"COc1cc2c(cnn2-c2ccc(F)cc2)cc1C1CN(S(=O)(=O)N(C)C)CCN1CCC(F)(F)F (stereo not shown) [Example 212, 3-(1-(4-fluorophenyl)-6-methoxy-indazol-5-yl)-N,N-dimethyl-4-(3,3,3-trifluoropropyl)piperazine-1-sulfonamide]"
17,3160,"COc1cc2c(cnn2-c2ccc(F)cc2)cc1C1CN(S(=O)(=O)N2CCOCC2)CCN1CCC(F)(F)F (stereo not shown) [Example 192, 4-(3-(1-(4-fluorophenyl)-6-methoxy-indazol-5-yl)-4-(3,3,3-trifluoropropyl)piperazin-1-yl)sulfonylmorpholine]"
18,1660,"COc1cc2c(cnn2-c2ccc(F)cc2)cc1C1CN(S(=O)(=O)c2csc(C)n2)CCN1CC1CCCC1 (stereo not shown) [Example 189, 4-(4-(cyclopentylmethyl)-3-(1-(4-fluorophenyl)-6-methoxy-indazol-5-yl)piperazin-1-yl)sulfonyl-2-methyl-thiazole]"
19,2540,"O=S(=O)(N1CCOCC1)N1CCN(CCC(F)(F)F)C(c2cc3cnn(-c4ccc(F)cc4)c3cc2Cl)C1 (stereo not shown) [Example 210, 4-(3-(6-chloro-1-(4-fluorophenyl)indazol-5-yl)-4-(3,3,3-trifluoropropyl)piperazin-1-yl)sulfonylmorpholine]"
20,1240,"Cc1cc2c(cnn2-c2cc(C)c(=O)n(C)n2)cc1C1CN(S(=O)(=O)c2cnn(C)n2)CCN1CCC(F)(F)F (stereo not shown) [Example 175, 2,4-dimethyl-6-(6-methyl-5-(4-(2-methyltriazol-4-yl)sulfonyl-1-(3,3,3-trifluoropropyl)piperazin-2-yl)indazol-1-yl)pyridazin-3-one]"
21,3980,"Cc1cc2c(cnn2-c2ccc(F)cc2)cc1C1CN(S(=O)(=O)N2CCOCC2)CCN1CCc1ccccc1 (single isomer, unassigned) [Example 215, 4-(3-(1-(4-fluorophenyl)-6-methyl-indazol-5-yl)-4-(2-phenylethyl)piperazin-1-yl)sulfonylmorpholine]"
22,1000,"Cc1cc2c(cnn2-c2ccc(=O)n(C)c2)cc1C1CN(S(=O)(=O)c2cccnc2)CCN1CCC(F)(F)F (stereo not shown) [Example 197, 1-methyl-5-(6-methyl-5-(4-(3-pyridylsulfonyl)-1-(3,3,3-trifluoropropyl)piperazin-2-yl)indazol-1-yl)pyridin-2-one]"
23,191,"CCn1cc(S(=O)(=O)N2CCN(CCC(F)(F)F)C(c3cc4cnn(-c5cc(C)c(=O)n(C)c5)c4cc3C)C2)cn1 (stereo not shown) [Example 174, 5-(5-(4-(1-ethylpyrazol-4-yl)sulfonyl-1-(3,3,3-trifluoropropyl)piperazin-2-yl)-6-methyl-indazol-1-yl)-1,3-dimethyl-pyridin-2-one]"
24,2750,"Cc1cc2c(cnn2-c2ccc(F)cc2)cc1C1CN(S(=O)(=O)N2CCOCC2)CCN1Cc1ccccc1 (single isomer, unassigned) [Example 214, 4-(4-benzyl-3-(1-(4-fluorophenyl)-6-methyl-indazol-5-yl)piperazin-1-yl)sulfonylmorpholine]"
25,1160,"Cc1nc(S(=O)(=O)N2CCN(CC3CCC3)C(c3cc4cnn(-c5ccc(F)cc5)c4cc3C)C2)cs1 (single isomer, unassigned) [Example 184, 4-(4-(cyclobutylmethyl)-3-(1-(4-fluorophenyl)-6-methyl-indazol-5-yl)piperazin-1-yl)sulfonyl-2-methyl-thiazole]"
